Results taken from paper PMC3848336, “Aurora Isoform Selectivity: Design and Synthesis of Imidazo[4,5-b]pyridine Derivatives as Highly Selective Inhibitors of Aurora-A Kinase in Cells” (Journal of Medicinal Chemistry, 2013).
Several values for one entry are separate records, joined by “and”; a condition that tells them apart may be missing. Equal entries are not always repeated. Where two headings read alike, the source gives them in different places.

Key:
[1] = In vivo mouse PK; conditions: plasma, mouse (female Balb/C), 5 mg kg^–1
Description: (§1) Mice (female Balb/C) were dosed po or iv with 28c (5 mg kg^–1) in 10% DMSO and 5% Tween 20 in saline. After administration, the mice were sacrificed at 5, 15, and 30 min and 1, 2, 4, 6, and 24 h. Blood was removed by cardiac puncture and centrifuged to obtain plasma samples. The plasma samples (100 μL) were added to the analytical internal standard (IS; olomoucine), followed by protein precipitation with 300 μL of methanol. Following centrifugation (1200g, 30 min, 4 °C), the resulting supernatants were analyzed for 28c levels by LC/MS using a reversed-phase X-Bridge C18 (Waters, 50 × 2.1 mm) analytical column and positive ion mode ESI MRM on a Waters 2795 liquid chromatography system coupled to a Quattro Ultima triple-quadrupole mass spectrometer (Waters).
as §1, with “40f” for “28c”, “The plasma samples (100 μL) were added to the analytical internal standard (IS; olomoucine), followed by protein precipitation with 300 μL of methanol.” left out, “Polar RP (Phenomenex,” for “X-Bridge C18 (Waters,”, “2” for “2.1”

[2] = target: BRSK2 (Homo sapiens, UniProt Q8IWQ3); assay: Kinase selectivity profiling; assay type: biochemical; conditions: 110-kinase panel
Description: (§2) Compound 28c was profiled against a panel of 110 kinases at the International Centre for Protein Kinase Profiling, Division of Signal Transduction Therapy, University of Dundee. Compound 40f was profiled against a panel of 50 kinases (MRC-PPU Express Screen) also at the International Centre for Protein Kinase Profiling.

[3] = target: CAMK1 (Homo sapiens, UniProt Q14012); assay: Kinase selectivity profiling; assay type: biochemical
Description: as §2

[4] = target: CHK1 (Homo sapiens, UniProt O14757); assay: Kinase selectivity profiling; assay type: biochemical; conditions: 110-kinase panel
Description: as §2

[5] = target: CK1 (Homo sapiens, UniProt P48730); assay: Kinase selectivity profiling; assay type: biochemical; conditions: 110-kinase panel
Description: as §2

[6] = target: CLK2 (Homo sapiens, UniProt P49760); assay: Kinase selectivity profiling; assay type: biochemical; conditions: 110-kinase panel
Description: as §2

[7] = target: EPH-A2 (Homo sapiens, UniProt P29317); assay: Kinase selectivity profiling; assay type: biochemical; conditions: read-out: % activity remaining, EPH2A2
Description: as §2

[8] = target: EPH-A4 (Homo sapiens, UniProt P54764); assay: Kinase selectivity profiling; assay type: biochemical; conditions: 110-kinase panel, read-out: % activity remaining, EPH2A4
Description: as §2

[9] = target: EPH-B1 (Homo sapiens, UniProt P54762); assay: Kinase selectivity profiling; assay type: biochemical; conditions: 110-kinase panel, read-out: % activity remaining, EPH2B1
Description: as §2

[10] = target: EPH-B4 (Homo sapiens, UniProt P54760); assay: Kinase selectivity profiling; assay type: biochemical; conditions: 110-kinase panel, read-out: % activity remaining, EPH2B4
Description: as §2

[11] = target: GCK (Homo sapiens, UniProt Q12851); assay: Kinase selectivity profiling; assay type: biochemical; conditions: 110-kinase panel
Description: as §2

[12] = target: GSK3b (Homo sapiens, UniProt P49841); assay: Kinase selectivity profiling; assay type: biochemical
Description: as §2

[13] = target: HIPK2 (Homo sapiens, UniProt Q9H2X6); assay: Kinase selectivity profiling; assay type: biochemical
Description: as §2

[14] = target: IKKb (Homo sapiens, UniProt O14920); assay: Kinase selectivity profiling; assay type: biochemical; conditions: 110-kinase panel
Description: as §2

[15] = target: LKB1 (Homo sapiens, UniProt Q15831); assay: Kinase selectivity profiling; assay type: biochemical
Description: as §2

[16] = target: MARK1 (Homo sapiens, UniProt Q9P0L2); assay: Kinase selectivity profiling; assay type: biochemical; conditions: 110-kinase panel
Description: as §2

[17] = target: MARK4 (Homo sapiens, UniProt Q96L34); assay: Kinase selectivity profiling; assay type: biochemical; conditions: 110-kinase panel
Description: as §2

[18] = target: MEKK1 (Homo sapiens, UniProt Q13233); assay: Kinase selectivity profiling; assay type: biochemical; conditions: 110-kinase panel
Description: as §2

[19] = target: MELK (Homo sapiens, UniProt Q14680); assay: Kinase selectivity profiling; assay type: biochemical; conditions: 110-kinase panel
Description: as §2

[20] = target: MINK1 (Homo sapiens, UniProt Q8N4C8); assay: Kinase selectivity profiling; assay type: biochemical; conditions: 110-kinase panel
Description: as §2

[21] = target: MLK1 (Homo sapiens, UniProt P80192); assay: Kinase selectivity profiling; assay type: biochemical; conditions: 110-kinase panel
Description: as §2

[22] = target: MST2 (Homo sapiens, UniProt Q13188); assay: Kinase selectivity profiling; assay type: biochemical
Description: as §2

[23] = target: PIM2 (Homo sapiens, UniProt Q9P1W9); assay: Kinase selectivity profiling; assay type: biochemical; conditions: 110-kinase panel
Description: as §2

[24] = target: PKBb (Homo sapiens, UniProt P31751); assay: Kinase selectivity profiling; assay type: biochemical; conditions: 110-kinase panel
Description: as §2

[25] = target: PKCz (Homo sapiens, UniProt Q05513); assay: Kinase selectivity profiling; assay type: biochemical; conditions: 110-kinase panel
Description: as §2

[26] = target: RSK2 (Homo sapiens, UniProt P51812); assay: Kinase selectivity profiling; assay type: biochemical; conditions: 110-kinase panel
Description: as §2

[27] = target: p38d MAPK (Homo sapiens, UniProt O15264); assay: Kinase selectivity profiling; assay type: biochemical; conditions: 110-kinase panel
Description: as §2

[28] = target: Aurora A (Homo sapiens, UniProt O14965); assay: Kinase selectivity profiling; assay type: biochemical; conditions: 110-kinase panel
[29] = target: Aurora B (Homo sapiens, UniProt Q96GD4); assay: Cellular inhibition of histone H3 phosphorylation at S10 (Aurora-B biomarker) in HCT116 cells; assay type: cell-based
[30] = target: CK1δ (Homo sapiens, UniProt P48730); assay: Kinase selectivity profiling; assay type: biochemical; conditions: 50-kinase panel (MRC-PPU Express Screen)
Description: as §2

[31] = tested on: AMPK (hum); assay: Kinase selectivity profiling; assay type: biochemical, human; conditions: 1 µM; 50-kinase panel (MRC-PPU Express Screen)
Description: as §2

[32] = 50-kinase panel (MRC-PPU Express Screen)

Sequence of Aurora B (Q96GD4 whole entry): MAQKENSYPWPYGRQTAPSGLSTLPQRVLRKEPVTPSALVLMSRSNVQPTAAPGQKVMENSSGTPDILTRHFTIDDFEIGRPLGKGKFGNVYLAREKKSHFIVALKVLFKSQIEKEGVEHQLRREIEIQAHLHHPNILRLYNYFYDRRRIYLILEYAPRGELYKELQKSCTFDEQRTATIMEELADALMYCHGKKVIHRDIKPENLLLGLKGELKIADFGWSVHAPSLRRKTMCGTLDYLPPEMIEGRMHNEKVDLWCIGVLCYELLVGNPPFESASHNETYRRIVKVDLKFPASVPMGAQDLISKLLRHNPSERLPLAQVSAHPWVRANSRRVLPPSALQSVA
Sequence of Aurora B (Q9NQS7 whole entry partner): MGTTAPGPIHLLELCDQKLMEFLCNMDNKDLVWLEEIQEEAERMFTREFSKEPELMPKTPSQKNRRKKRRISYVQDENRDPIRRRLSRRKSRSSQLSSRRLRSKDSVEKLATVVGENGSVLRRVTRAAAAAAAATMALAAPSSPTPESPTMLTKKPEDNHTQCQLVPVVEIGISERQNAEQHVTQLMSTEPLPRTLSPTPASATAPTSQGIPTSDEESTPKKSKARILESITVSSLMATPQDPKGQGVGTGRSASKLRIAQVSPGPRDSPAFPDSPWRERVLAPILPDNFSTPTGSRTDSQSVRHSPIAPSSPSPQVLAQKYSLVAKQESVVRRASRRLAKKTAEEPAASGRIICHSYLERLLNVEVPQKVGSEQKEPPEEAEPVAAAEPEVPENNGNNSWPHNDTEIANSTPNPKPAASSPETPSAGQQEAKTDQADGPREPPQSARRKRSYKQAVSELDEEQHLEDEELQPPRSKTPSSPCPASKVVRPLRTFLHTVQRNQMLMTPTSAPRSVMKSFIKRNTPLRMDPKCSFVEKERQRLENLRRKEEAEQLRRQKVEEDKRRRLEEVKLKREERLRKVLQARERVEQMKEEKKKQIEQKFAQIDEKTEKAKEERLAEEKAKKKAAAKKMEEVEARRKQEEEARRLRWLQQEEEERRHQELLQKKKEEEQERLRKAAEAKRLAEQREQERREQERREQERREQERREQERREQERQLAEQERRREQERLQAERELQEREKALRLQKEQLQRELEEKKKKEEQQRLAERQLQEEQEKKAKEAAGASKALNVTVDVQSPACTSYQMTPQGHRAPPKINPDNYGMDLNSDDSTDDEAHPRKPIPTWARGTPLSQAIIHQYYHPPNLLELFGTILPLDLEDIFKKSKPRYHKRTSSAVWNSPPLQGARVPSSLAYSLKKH
Sequence of Aurora B (O15392 whole entry partner): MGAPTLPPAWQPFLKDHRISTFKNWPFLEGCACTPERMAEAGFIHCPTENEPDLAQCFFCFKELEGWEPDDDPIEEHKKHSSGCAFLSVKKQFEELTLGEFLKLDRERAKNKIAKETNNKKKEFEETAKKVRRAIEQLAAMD
Sequence of Aurora B (Q53HL2 whole entry partner): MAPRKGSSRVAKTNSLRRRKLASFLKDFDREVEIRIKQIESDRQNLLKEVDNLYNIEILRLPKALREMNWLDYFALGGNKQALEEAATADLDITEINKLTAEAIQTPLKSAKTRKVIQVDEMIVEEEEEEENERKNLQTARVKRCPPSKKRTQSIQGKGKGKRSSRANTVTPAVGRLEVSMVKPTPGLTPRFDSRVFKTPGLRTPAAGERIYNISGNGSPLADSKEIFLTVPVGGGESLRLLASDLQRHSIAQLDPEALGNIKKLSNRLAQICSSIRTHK
Sequence of CAMK1 (Q14012 whole entry): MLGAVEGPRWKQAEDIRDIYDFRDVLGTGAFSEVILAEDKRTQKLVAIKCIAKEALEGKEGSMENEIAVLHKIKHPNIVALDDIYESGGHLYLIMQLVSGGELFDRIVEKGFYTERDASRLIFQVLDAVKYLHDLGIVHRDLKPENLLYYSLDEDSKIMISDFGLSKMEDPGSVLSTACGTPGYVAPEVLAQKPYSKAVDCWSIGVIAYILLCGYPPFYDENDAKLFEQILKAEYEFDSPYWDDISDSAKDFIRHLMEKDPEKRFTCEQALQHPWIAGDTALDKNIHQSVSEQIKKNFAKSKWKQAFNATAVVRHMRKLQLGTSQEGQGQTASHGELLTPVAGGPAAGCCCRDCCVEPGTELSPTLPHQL
Sequence of GSK3b (P49841 whole entry): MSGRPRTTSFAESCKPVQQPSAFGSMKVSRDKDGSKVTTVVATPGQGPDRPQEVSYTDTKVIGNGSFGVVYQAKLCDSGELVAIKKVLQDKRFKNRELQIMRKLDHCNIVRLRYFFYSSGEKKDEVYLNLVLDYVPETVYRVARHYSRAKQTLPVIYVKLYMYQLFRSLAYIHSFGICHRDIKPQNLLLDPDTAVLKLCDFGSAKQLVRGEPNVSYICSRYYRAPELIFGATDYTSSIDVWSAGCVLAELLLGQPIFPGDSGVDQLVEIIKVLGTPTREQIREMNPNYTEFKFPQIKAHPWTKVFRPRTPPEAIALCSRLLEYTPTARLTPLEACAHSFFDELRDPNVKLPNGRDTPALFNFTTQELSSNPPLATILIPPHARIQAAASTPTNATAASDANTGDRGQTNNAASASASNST
Sequence of MST2 (Q13188 whole entry): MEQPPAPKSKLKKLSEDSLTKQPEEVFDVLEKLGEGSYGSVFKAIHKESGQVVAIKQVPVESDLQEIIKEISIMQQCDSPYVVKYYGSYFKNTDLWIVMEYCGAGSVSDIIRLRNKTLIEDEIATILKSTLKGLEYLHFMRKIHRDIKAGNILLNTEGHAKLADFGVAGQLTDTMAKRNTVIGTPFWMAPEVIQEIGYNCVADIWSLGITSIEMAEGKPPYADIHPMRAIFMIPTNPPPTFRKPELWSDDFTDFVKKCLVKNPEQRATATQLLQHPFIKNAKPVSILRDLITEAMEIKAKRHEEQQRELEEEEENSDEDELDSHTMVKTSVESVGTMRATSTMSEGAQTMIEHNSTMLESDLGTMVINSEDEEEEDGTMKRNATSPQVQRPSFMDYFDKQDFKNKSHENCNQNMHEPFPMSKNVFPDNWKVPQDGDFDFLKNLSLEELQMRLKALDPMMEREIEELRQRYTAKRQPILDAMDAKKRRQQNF
Sequence of EPH-A2 (P29317 24-976): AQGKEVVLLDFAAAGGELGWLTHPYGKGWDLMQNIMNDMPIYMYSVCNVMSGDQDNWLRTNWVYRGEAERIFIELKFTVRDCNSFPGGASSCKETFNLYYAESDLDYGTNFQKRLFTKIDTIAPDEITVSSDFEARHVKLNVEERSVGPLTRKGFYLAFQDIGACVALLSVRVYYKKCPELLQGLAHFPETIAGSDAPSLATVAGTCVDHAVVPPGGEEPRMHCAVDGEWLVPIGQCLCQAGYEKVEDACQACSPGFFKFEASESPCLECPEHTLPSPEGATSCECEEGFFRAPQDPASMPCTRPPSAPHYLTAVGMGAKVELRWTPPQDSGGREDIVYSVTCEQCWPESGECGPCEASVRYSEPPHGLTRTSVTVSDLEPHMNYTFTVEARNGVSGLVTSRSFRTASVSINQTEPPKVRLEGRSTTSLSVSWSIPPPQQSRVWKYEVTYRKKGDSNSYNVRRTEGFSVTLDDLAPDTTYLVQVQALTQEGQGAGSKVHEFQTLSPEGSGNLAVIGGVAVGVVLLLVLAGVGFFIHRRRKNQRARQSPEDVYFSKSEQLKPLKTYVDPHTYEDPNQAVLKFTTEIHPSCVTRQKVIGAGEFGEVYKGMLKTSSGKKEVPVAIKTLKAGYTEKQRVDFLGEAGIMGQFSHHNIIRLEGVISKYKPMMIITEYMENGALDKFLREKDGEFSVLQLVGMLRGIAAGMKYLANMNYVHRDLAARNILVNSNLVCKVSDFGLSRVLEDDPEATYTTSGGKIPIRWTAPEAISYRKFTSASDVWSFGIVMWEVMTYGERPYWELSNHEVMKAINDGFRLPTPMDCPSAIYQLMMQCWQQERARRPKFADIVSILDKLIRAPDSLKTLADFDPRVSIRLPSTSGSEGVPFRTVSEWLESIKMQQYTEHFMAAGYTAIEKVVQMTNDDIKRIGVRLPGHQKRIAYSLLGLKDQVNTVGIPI
Sequence of BRSK2 (Q8IWQ3 whole entry): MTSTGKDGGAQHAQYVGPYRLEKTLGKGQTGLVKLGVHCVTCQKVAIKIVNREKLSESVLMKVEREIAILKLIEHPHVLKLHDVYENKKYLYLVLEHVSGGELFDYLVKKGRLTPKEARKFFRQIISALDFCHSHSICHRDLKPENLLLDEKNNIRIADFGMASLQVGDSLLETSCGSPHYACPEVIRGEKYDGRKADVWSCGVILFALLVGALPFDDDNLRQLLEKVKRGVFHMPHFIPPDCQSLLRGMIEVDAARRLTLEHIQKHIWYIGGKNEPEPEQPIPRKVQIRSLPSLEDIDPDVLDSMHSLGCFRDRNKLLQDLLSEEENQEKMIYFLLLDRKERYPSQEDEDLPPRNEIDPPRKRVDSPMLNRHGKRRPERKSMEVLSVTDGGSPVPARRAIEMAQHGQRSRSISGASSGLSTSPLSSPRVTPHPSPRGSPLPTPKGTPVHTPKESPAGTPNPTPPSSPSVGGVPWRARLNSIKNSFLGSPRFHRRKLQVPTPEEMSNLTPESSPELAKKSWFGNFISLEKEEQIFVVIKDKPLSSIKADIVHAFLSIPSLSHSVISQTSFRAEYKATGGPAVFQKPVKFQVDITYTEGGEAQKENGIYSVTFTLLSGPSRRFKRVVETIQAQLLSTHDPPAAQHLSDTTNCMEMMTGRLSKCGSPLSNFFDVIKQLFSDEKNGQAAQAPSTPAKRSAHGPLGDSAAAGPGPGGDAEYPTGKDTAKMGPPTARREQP
Sequence of PIM2 (Q9P1W9 whole entry): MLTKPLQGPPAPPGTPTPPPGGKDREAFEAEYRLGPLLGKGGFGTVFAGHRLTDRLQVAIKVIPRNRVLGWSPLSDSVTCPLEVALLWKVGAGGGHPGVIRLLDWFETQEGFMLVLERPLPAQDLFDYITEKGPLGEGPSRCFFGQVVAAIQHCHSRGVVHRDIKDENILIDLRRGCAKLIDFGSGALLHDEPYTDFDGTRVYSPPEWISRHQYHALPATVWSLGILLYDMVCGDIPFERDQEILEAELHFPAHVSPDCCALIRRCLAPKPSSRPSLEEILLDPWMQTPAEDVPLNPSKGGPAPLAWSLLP

For `Cc1nn(C)cc1-c1nc2c(Oc3ccc(C(=O)Nc4ccccc4)cc3)c(Cl)cnc2[nH]1` [compound 28c, 4-((6-Chloro-2-(1,3-dimethyl-1H-pyrazol-4-yl)-3H-imidazo[4,5-b]pyridin-7-yl)oxy)-N-phenylbenzamide], the clearance [1] was 0.883 mL/min and 44.2 mL/min/kg, the Vd ([1]; read-out: volume of distribution) was 0.036 L and the remaining activity at 1 µM [2] was 111%. The remaining activity at 1 µM ([3]; 110-kinase panel) was 100%, the remaining activity at 1 µM [4] was 94% and the remaining activity at 1 µM [5] was 86%. The remaining activity at 1 µM [6] was 84%, the remaining activity at 1 µM ([7]; 110-kinase panel) was 138% and the remaining activity at 1 µM [8] was 112%. The remaining activity at 1 µM [9] was 127%, the remaining activity at 1 µM [10] was 102% and the remaining activity at 1 µM [11] was 98%. It also gave a remaining activity at 1 µM ([12]; 110-kinase panel) of 8%, a remaining activity at 1 µM ([13]; 110-kinase panel) of 83% and a remaining activity at 1 µM [14] of 99%. It also gave a remaining activity at 1 µM ([15]; 110-kinase panel) of 97%, a remaining activity at 1 µM [16] of 103% and a remaining activity at 1 µM [17] of 85%. It also gave a remaining activity at 1 µM [18] of 93%, a remaining activity at 1 µM [19] of 79% and a remaining activity at 1 µM [20] of 75%. It also gave a remaining activity at 1 µM [21] of 31%, a remaining activity at 1 µM ([22]; 110-kinase panel) of 106% and a remaining activity at 1 µM [23] of 117%. It also gave a remaining activity at 1 µM [24] of 78%, a remaining activity at 1 µM [25] of 100% and a remaining activity at 1 µM [26] of 94%. It also gave a remaining activity at 1 µM [27] of 102% and a remaining activity at 1 µM [28] of 4%.

For `Cc1nn(C)cc1-c1nc2c(Oc3ccc(C(=O)NC4CCC4)cc3)c(Cl)cnc2[nH]1` [compound 40f, 4-((6-Chloro-2-(1,3-dimethyl-1H-pyrazol-4-yl)-3H-imidazo[4,5-b]pyridin-7-yl)oxy)-N-cyclobutylbenzamide], the “histone H3 phosphorylation” value ([29]; 1.5 μM) was “increase in histone H3 phosphorylation”, the “inhibition of histone H3 phosphorylation at S10” value ([29]; 25 μM) was “partial inhibition” and the “inhibition of histone H3 phosphorylation at S10” value ([29]; 50 μM) was “complete inhibition”. For the same compound, the remaining activity at 1 µM [3, 32] was 85%, the remaining activity at 1 µM [30] was 87% and the remaining activity at 1 µM [7, 32] was 88%. For the same compound, the remaining activity at 1 µM [12, 32] was 25%, the remaining activity at 1 µM [13, 32] was 98% and the remaining activity at 1 µM [15, 32] was 108%. For the same compound, the remaining activity at 1 µM [22, 32] was 141% and the “% activity remaining, AMPK (hum)” value [31] was 85%.
